Test results taken from patent US11702418B2, “SOS1 inhibitors” (priority 2019, dated 2023).
pIC50, pKi: −log10 of the molar value. Structures can show the parent of a compound that is named as a salt. Where two headings read alike, the source gives them in different places.

Columns and labels:
pERK in MKN1 cells = experiment: cells; type: cell-based
[1] = target: recombinant human SOS1 polypeptide (amino acids 560-1049) (Homo sapiens (Human), UniProt Q07889); experiment: biochemical; type: binding
[2] = Homo sapiens, MKN-1, pERK inhibition, In-Cell Western, MKN1 or H358 cells (Table 24 does not say which), 0.5-1 hour incubation, read-out: IC50
[3] = HTRF displacement, Cy5 labelled tracer, Morrison equation for competitive binding, read-out: Ki, Inhibition of Labeled Tracer Binding to SOS1
[4] = read-out: Ki, Inhibition of Labeled Tracer Binding to SOS1

recombinant human SOS1 polypeptide (amino acids 560-1049), sequence (Q07889 560-1049): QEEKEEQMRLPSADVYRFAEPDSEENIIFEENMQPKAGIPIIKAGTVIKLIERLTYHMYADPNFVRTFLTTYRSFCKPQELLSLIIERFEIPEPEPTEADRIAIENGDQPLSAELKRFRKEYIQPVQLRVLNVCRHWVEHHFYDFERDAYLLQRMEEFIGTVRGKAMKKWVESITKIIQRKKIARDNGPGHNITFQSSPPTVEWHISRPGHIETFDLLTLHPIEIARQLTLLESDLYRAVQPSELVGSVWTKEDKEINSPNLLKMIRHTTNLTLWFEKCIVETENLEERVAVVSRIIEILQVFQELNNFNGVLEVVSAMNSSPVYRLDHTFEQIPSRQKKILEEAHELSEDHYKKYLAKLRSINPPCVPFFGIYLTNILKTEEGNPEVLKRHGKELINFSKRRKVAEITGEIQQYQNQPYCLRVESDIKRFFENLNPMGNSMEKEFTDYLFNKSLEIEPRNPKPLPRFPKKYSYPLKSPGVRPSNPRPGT

## Cc1nnc(N[C@H](C)c2cc(N)cc(C(F)(F)F)n2)c2cc(N3CC(C)(N(C)C)C3)ccc12 [Example 16-9, (R)-N-(1-(4-amino-6-(trifluoromethyl)pyridin-2-yl)ethyl)-7-(3-(dimethylamino)-3-methylazetidin-1-yl)-4-methylphthalazin-1-amine]
pERK in MKN1 cells; [2]
  pIC50: 6.19
[1]; [3]
  pKi: 7.45

## Cc1c([C@@H](C)Nc2nnc(C)c3ccc(N4CCN(C)C5(CC5)C4)cc23)cccc1C(F)(F)F [Example 10-33, (R)-4-methyl-N-(1-(2-methyl-3-(trifluoromethyl)phenyl)ethyl)-7-(4-methyl-4,7-diazaspiro[2.5]octan-7-yl)phthalazin-1-amine]
pERK in MKN1 cells; [2]
  pIC50: 6.56
[1]; [3]
  pKi: 9.16

## Cc1c([C@@H](C)Nc2nnc(C)c3ccc(N4CCC(N(C)C)C4)cc23)cccc1C(F)(F)F (stereo in doubt) [Example 10-27, 7-((R)-3-(dimethylamino)pyrrolidin-1-yl)-4-methyl-N-((R)-1-(2-methyl-3-(trifluoromethyl)phenyl)ethyl)phthalazin-1-amine hydrochloride salt]
pERK in MKN1 cells; Homo sapiens, MKN-1
  pIC50: 6.81
[1]; [4]
  pKi: 9.34

## Cc1c(C#N)cccc1[C@@H](C)Nc1nnc(C)c2cnc(N3CC4(COCCN4C)C3)cc12 [Example 12-72]
pERK in MKN1 cells; [2]
  pIC50: 7.72
[1]; [3]
  pKi: 8.36

## Cc1c(C#N)cccc1[C@@H](C)Nc1nnc(C)c2ccc(N3CCOCC3)cc12 [Example 10-51, (R)-2-methyl-3-(1-((4-methyl-7-morpholinophthalazin-1-yl)amino)ethyl)benzonitrile]
pERK in MKN1 cells; [2]
  pIC50: 7.41
[1]; [3]
  pKi: 8.85

## COc1c(C#N)cccc1[C@@H](C)Nc1nnc(C)c2cnc(N3CCN4CCOCC4C3)cc12 (stereo in doubt) [Example 17-2, 3-((R)-1-((7-((R)-hexahydropyrazino[2,1-c][1,4]oxazin-8(1H)-yl)-4-methylpyrido[3,4-d]pyridazin-1-yl)amino)ethyl)-2-methoxybenzonitrile]
pERK in MKN1 cells; [2]
  pIC50: 7.30
[1]; [3]
  pKi: 7.90

## Cc1nnc(N[C@H](C)c2cc(O)cc(C(F)(F)F)c2)c2cc(N3CCOCC3)ccc12 [Example 21-2, (R)-3-(1-((4-methyl-7-morpholinophthalazin-1-yl)amino)ethyl)-5-(trifluoromethyl)phenol]
pERK in MKN1 cells; Homo sapiens, MKN-1, pERK inhibition, In-Cell Western, MKN1 or H358 cells (Table 24 does not say which), 0.5-1 hour incubation
  pIC50: 6.86
[1]
  pKi: 8.78

## Cc1c(C#N)cccc1[C@@H](C)Nc1nnc(C)c2cnc(N3CCC(F)(F)CC3)cc12 [Example 12-34]
pERK in MKN1 cells; [2]
  pIC50: 7.29
[1]; [3]
  pKi: 8.37

## Cc1c([C@@H](C)Nc2nnc(CN(C)C)c3cnc(N4C[C@H]5C[C@@H]4CO5)cc23)cccc1C(F)(F)F [Example 14-6, 7-((1R,4R)-2-oxa-5-azabicyclo[2.2.1]heptan-5-yl)-4-((dimethylamino)methyl)-N-((R)-1-(2-methyl-3-(trifluoromethyl)phenyl)ethyl)pyrido[3,4-d]pyridazin-1-amine]
pERK in MKN1 cells; [2]
  pIC50: 6.85
[1]; [3]
  pKi: 8.59

## Cc1c([C@@H](C)Nc2nnc(C)c3ccc(N4CCC5(CCCN5)CC4)cc23)cccc1C(F)(F)F [Example 10-18, (R)-4-methyl-N-(1-(2-methyl-3-(trifluoromethyl)phenyl)ethyl)-7-(1,8-diazaspiro[4.5]decan-8-yl)phthalazin-1-amine]
pERK in MKN1 cells; pERK inhibition, In-Cell Western, MKN1 or H358 cells (Table 24 does not say which), 0.5-1 hour incubation, read-out: IC50
  pIC50: 6.54
[1]; [3]
  pKi: 8.85

## Cc1c(C#N)cccc1[C@@H](C)Nc1nnc(C)c2ccc(N3CCC(N4CCC4)CC3)cc12 [Example 10-68, (R)-3-(1-((7-(4-(azetidin-1-yl)piperidin-1-yl)-4-methylphthalazin-1-yl)amino)ethyl)-2-methylbenzonitrile]
pERK in MKN1 cells; [2]
  pIC50: 7.44
[1]; [3]
  pKi: 9.12

## Cc1c([C@@H](C)Nc2nnc(C)c3cnc(N4CC(N(C)C)C4)cc23)cccc1C(F)(F)F [Example 12-20]
pERK in MKN1 cells; [2]
  pIC50: 7.21
[1]; [3]
  pKi: 8.80

## Cc1c([C@@H](C)Nc2nnc(C)c3cnc(N4CC(C)(CO)C4)cc23)cccc1C(F)(F)F [Example 12-39]
pERK in MKN1 cells; [2]
  pIC50: 7.12
[1]; [3]
  pKi: 9.04

## Cc1c([C@@H](C)Nc2nncc3ccc(N4CCn5cc(C(F)(F)F)nc5C4C)cc23)cccc1C(F)(F)F (stereo partly drawn) [Example 1-47, 7-(8-methyl-2-(trifluoromethyl)-5,6-dihydroimidazo[1,2-a]pyrazin-7(8H)-yl)-N-((R)-1-(2-methyl-3-(trifluoromethyl)phenyl)ethyl)phthalazin-1-amine]
pERK in MKN1 cells; [2]
  pIC50: 6.46
[1]; [3]
  pKi: 8.68

## Cc1c(C#N)cccc1[C@@H](C)Nc1nnc(C)c2cnc(N3CC(C)(N(C)C)C3)cc12 [Example 12-43]
pERK in MKN1 cells; [2]
  pIC50: 7.36
[1]; [3]
  pKi: 8.47

## Cc1c(C#N)cccc1[C@@H](C)Nc1nnc(C)c2ccc(N3CC(N(C)C)C3)cc12 [Example 10-75, (R)-3-(1-((7-(3-(dimethylamino)azetidin-1-yl)-4-methylphthalazin-1-yl)amino)ethyl)-2-methylbenzonitrile Hydrochloride salt]
pERK in MKN1 cells; Homo sapiens, MKN-1
  pIC50: 7.25
[1]; [4]
  pKi: 8.19

## Cc1c([C@@H](C)Nc2nnc(C)c3ccc(OC[C@H]4CCCN4)cc23)cccc1C(F)(F)F [Example 7-7, 4-methyl-N-((R)-1-(2-methyl-3-(trifluoromethyl)phenyl)ethyl)-7-(((R)-pyrrolidin-2-yl)methoxy)phthalazin-1-amine hydrochloride salt]
pERK in MKN1 cells; Homo sapiens, MKN-1
  pIC50: 6.94
[1]; [4]
  pKi: 9.04

## Cc1c([C@@H](C)Nc2nncc3ccc(N4CCn5c(cnc5C)C4)cc23)cccc1C(F)(F)F [Example 1-37, (R)-N-(1-(2-methyl-3-(trifluoromethyl)phenyl)ethyl)-7-(3-methyl-5,6-dihydroimidazo[1,5-a]pyrazin-7(8H)-yl)phthalazin-1-amine]
pERK in MKN1 cells; [2]
  pIC50: 6.88
[1]; [3]
  pKi: 9.60

## CNCc1nnc(N[C@H](C)c2cccc(C(F)(F)F)c2C)c2cc(N3C[C@H]4C[C@@H]3CO4)ncc12 [Example 14-5, 7-((1R,4R)-2-oxa-5-azabicyclo[2.2.1]heptan-5-yl)-N-((R)-1-(2-methyl-3-(trifluoromethyl)phenyl)ethyl)-4-((methylamino)methyl)pyrido[3,4-d]pyridazin-1-amine]
pERK in MKN1 cells; [2]
  pIC50: 7.15
[1]; [3]
  pKi: 8.60

## Cc1nnc(N[C@H](C)c2cccc(C(F)F)c2F)c2cc(N3CCN4CCOC[C@@H]4C3)ccc12 [Example 10-86, N-((R)-1-(3-(difluoromethyl)-2-fluorophenyl)ethyl)-7-((S)-hexahydropyrazino[2,1-c][1,4]oxazin-8(1H)-yl)-4-methylphthalazin-1-amine Formate salt]
pERK in MKN1 cells; Homo sapiens, MKN-1
  pIC50: 7.68
[1]; [4]
  pKi: 8.82

## Cc1c([C@@H](C)Nc2nnc(C)c3ccc(N4CCN(C)CC4)cc23)cccc1C(F)(F)F [Example 6-1, (R)-4-methyl-N-(1-(2-methyl-3-(trifluoromethyl)phenyl)ethyl)-7-(4-methylpiperazin-1-yl)phthalazin-1-amine]
pERK in MKN1 cells; [2]
  pIC50: 7.10
[1]; [3]
  pKi: 9.96

## Cc1nnc(N[C@H](C)c2ccc(F)cc2F)c2cc(N3CC4CC(C3)O4)ncc12 [Example 12-58]
pERK in MKN1 cells; [2]
  pIC50: 7.42
[1]; [3]
  pKi: 7.84

## Cc1c(C#N)cccc1[C@@H](C)Nc1nnc(C)c2cnc(N3CCNCC3)cc12 [Example 12-25]
pERK in MKN1 cells; [2]
  pIC50: 7.46
[1]; [3]
  pKi: 8.62

## Cc1c([C@@H](C)Nc2nnc(C)c3ccc(N4C[C@H]5CC[C@@H]4CN5C)cc23)cccc1C(F)(F)F [Example 10-32, 4-methyl-N-((R)-1-(2-methyl-3-(trifluoromethyl)phenyl)ethyl)-7-((1R,4R)-5-methyl-2,5-diazabicyclo[2.2.2]octan-2-yl)phthalazin-1-amine]
pERK in MKN1 cells; [2]
  pIC50: 7.55
[1]; [3]
  pKi: 9.70

## Cc1c([C@@H](C)Nc2nnc(C)c3ccc(N4CCC5(CCNCC5)C4=O)cc23)cccc1C(F)(F)F [Example 10-39, (R)-2-(1-methyl-4-((1-(2-methyl-3-(trifluoromethyl)phenyl)ethyl)amino)phthalazin-6-yl)-2,8-diazaspiro[4.5]decan-1-one hydrochloride salt]
pERK in MKN1 cells; Homo sapiens, MKN-1
  pIC50: 6.96
[1]; [4]
  pKi: 8.83

## Cc1c(C#N)cccc1[C@@H](C)Nc1nnc(C)c2cnc(N3CCN4CCOC[C@@H]4C3)cc12 [Example 12-27]
pERK in MKN1 cells; [2]
  pIC50: 7.85
[1]; [3]
  pKi: 8.55

## Cc1c(C#N)cc(F)cc1[C@@H](C)Nc1nnc(C)c2cnc(N3CCN4CCOC[C@@H]4C3)cc12 [Example 12-103]
pERK in MKN1 cells; [2]
  pIC50: 6.97
[1]; [3]
  pKi: 7.96

## Cc1c([C@@H](C)Nc2nncc3ccc(N4CCC5C(CCN5C)C4)cc23)cccc1C(F)(F)F (stereo partly drawn) [Example 1-35, N-((R)-1-(2-methyl-3-(trifluoromethyl)phenyl)ethyl)-7-(1-methyloctahydro-5H-pyrrolo[3,2-c]pyridin-5-yl)phthalazin-1-amine]
pERK in MKN1 cells; [2]
  pIC50: 6.91

## Cc1c([C@@H](C)Nc2nncc3ccc(N4CCn5c(nc6c5CCCC6)C4)cc23)cccc1C(F)(F)F [Example 1-45, (R)-7-(3,4,6,7,8,9-hexahydrobenzo[4,5]imidazo[1,2-a]pyrazin-2(1H)-yl)-N-(1-(2-methyl-3-(trifluoromethyl)phenyl)ethyl)phthalazin-1-amine]
pERK in MKN1 cells; [2]
  pIC50: 6.47

## Cc1c([C@@H](C)Nc2nncc3ccc(OC4CC5CCC(C4)N5C)cc23)cccc1C(F)(F)F (stereo partly drawn) [Example 2-10, N-((R)-1-(2-methyl-3-(trifluoromethyl)phenyl)ethyl)-7-((8-methyl-8-azabicyclo[3.2.1]octan-3-yl)oxy)phthalazin-1-amine]
pERK in MKN1 cells; [2]
  pIC50: 6.65

## C[C@@H](Nc1nncc2ccc(N3CCOCC3)cc12)c1cc(-c2ccccc2CN(C)C)cs1 [Example 2-1, (R)—N-(1-(4-(2-((dimethylamino)methyl)phenyl)thiophen-2-yl)ethyl)-7-morpholinophthalazin-1-amine]
pERK in MKN1 cells; [2]
  pIC50: 6.51

## Cc1c([C@@H](C)Nc2nnc(C)c3cnc(N4C[C@@H](C)O[C@@H](C)C4)cc23)cccc1C(F)(F)F [Example 12-4]
pERK in MKN1 cells; [2]
  pIC50: 6.43

## Cc1c([C@@H](C)Nc2nncc3ccc(N4CCC5C(CCCN5C)C4)cc23)cccc1C(F)(F)F (stereo partly drawn) [Example 1-42, N-((R)-1-(2-methyl-3-(trifluoromethyl)phenyl)ethyl)-7-(1-methyloctahydro-1,6-naphthyridin-6(2H)-yl)phthalazin-1-amine]
pERK in MKN1 cells; [2]
  pIC50: 6.70
